molecular target: Beta-3 Adrenergic Receptor (Homo sapiens (Human), UniProt P13945); test: Homogeneous Time-Resolved Fluorescence (HTRF) cAMP antagonist assay, IC50 determination; type: cell-based; conditions: CHO-K1 cells stably expressing recombinant receptor, isoproterenol at EC90
How it was run: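 Antagonist mode: isoproterenol at its predetermined EC90 added after compound to recombinant CHO-K1 cells in IBMX-containing PBS, 1 h, room temperature. Compounds tested as 5-fold, 10-point dilutions, top final typically 10 or 100 μM. HTRF signal converted to cAMP via standard curve, giving IC50.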

Sequence of Beta-3 Adrenergic Receptor (P13945 whole entry, species assumed): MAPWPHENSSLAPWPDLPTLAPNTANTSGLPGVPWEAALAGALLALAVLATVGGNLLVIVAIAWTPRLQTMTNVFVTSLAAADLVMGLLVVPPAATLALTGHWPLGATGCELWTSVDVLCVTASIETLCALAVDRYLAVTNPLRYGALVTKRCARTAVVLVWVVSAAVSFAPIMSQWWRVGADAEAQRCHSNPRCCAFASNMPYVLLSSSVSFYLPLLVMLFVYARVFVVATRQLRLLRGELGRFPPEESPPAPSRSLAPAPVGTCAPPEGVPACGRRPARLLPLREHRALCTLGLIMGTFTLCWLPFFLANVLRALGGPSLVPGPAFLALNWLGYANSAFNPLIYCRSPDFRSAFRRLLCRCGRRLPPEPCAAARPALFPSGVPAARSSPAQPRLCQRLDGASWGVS

| Compound | IC50 [µM] |
| --- | --- |
| CN(C)CCCNS(=O)(=O)c1cccc(OC[C@@H](O)CNC2COC3(CCN(S(=O)(=O)c4ccc5c(c4)N(C)CCO5)CC3)C2)c1 (stereo partly drawn) [Compound 316, N-(3-(dimethylamino)propyl)-3-((2S)-2-hydroxy-3-(8-(4-methyl-3,4-dihydro-2H-benzo[b][1,4]oxazin-6-ylsulfonyl)-1-oxa-8-azaspiro[4.5]decan-3-ylamino)propoxy)benzenesulfonamide] | 1.94 |
| CNS(=O)(=O)c1cccc(OC[C@@H](O)CNC2COC3(CCN(S(=O)(=O)c4cccc(-c5ccc(CNCCNC(C)=O)cc5)c4)CC3)C2)c1 (stereo partly drawn) [Compound 348, N-(2-((3′-(3-((S)-2-hydroxy-3-(3-(N-methylsulfamoyl)phenoxy)propylamino)-1-oxa-8-azaspiro[4.5]decan-8-ylsulfonyl)biphenyl-4-yl)methylamino)ethyl)acetamide] | 0.0367 |
| CNS(=O)(=O)c1cccc(OC[C@@H](O)CNC2COC3(CCN(S(=O)(=O)c4cccc(-c5ccc(CNCCO)cc5)c4)CC3)C2)c1 (stereo partly drawn) [Compound 304, 3-((2S)-2-hydroxy-3-(8-(4′-((2-hydroxyethylamino)methyl)biphenyl-3-ylsulfonyl)-1-oxa-8-azaspiro[4.5]decan-3-ylamino)propoxy)-N-methylbenzenesulfonamide] | 0.043 |
| CNS(=O)(=O)c1cccc(OC[C@@H](O)CNC2COC3(CCN(S(=O)(=O)c4ccc(-c5cc(C(F)(F)F)on5)s4)CC3)C2)c1 (stereo partly drawn) [Compound 208, 3-((2S)-2-hydroxy-3-(8-(5-(5-(trifluoromethyl)isoxazol-3-yl)thiophen-2-ylsulfonyl)-1-oxa-8-azaspiro[4.5]decan-3-ylamino)propoxy)-N-methylbenzenesulfonamide] | 0.0646 |
| O=S(=O)(NC1(CO)CC1)c1cccc(OC[C@@H](O)CNC2COC3(CCN(S(=O)(=O)c4ccc5ccccc5c4)CC3)C2)c1 (stereo partly drawn) [Compound 99, 3-((2S)-2-hydroxy-3-(8-(naphthalen-2-ylsulfonyl)-1-oxa-8-azaspiro[4.5]decan-3-ylamino)propoxy)-N-(1-(hydroxymethyl)cyclopropyl)benzenesulfonamide] | 0.121 |
| O=S(=O)(NCC1CCCNC1)c1cccc(OC[C@@H](O)CNC2COC3(CCN(S(=O)(=O)c4ccc5ccccc5c4)CC3)C2)c1 (stereo partly drawn) [Compound 168, 3-((2S)-2-hydroxy-3-(8-(naphthalen-2-ylsulfonyl)-1-oxa-8-azaspiro[4.5]decan-3-ylamino)propoxy)-N-(piperidin-3-ylmethyl)benzenesulfonamide] | 1.47 |
| CNS(=O)(=O)c1cccc(OC[C@@H](O)CNC2COC3(CCN(S(=O)(=O)c4cccc(-c5cn(C)c(=O)n(C)c5=O)c4)CC3)C2)c1 (stereo partly drawn) [Compound 113, 3-((2S)-3-(8-(3-(1,3-dimethyl-2,4-dioxo-1,2,3,4-tetrahydropyrimidin-5-yl)phenylsulfonyl)-1-oxa-8-azaspiro[4.5]decan-3-ylamino)-2-hydroxypropoxy)-N-methylbenzenesulfonamide] | 0.213 |
| CNS(=O)(=O)c1cccc(OC[C@@H](O)CNC2COC3(CCN(S(=O)(=O)c4ccc(OC)cc4C)CC3)C2)c1 (stereo partly drawn) [Compound 236, 3-((2S)-2-hydroxy-3-(8-(4-methoxy-2-methylphenylsulfonyl)-1-oxa-8-azaspiro[4.5]decan-3-ylamino)propoxy)-N-methylbenzenesulfonamide] | 0.0549 |
| CNS(=O)(=O)c1cccc(OC[C@@H](O)CNC2COC3(CCN(S(=O)(=O)c4cccc(-c5ccc(CNCCN(C)C)cc5)c4)CC3)C2)c1 (stereo partly drawn) [Compound 305, 3-((2S)-3-(8-(4′-((2-(dimethylamino)ethylamino)methyl)biphenyl-3-ylsulfonyl)-1-oxa-8-azaspiro[4.5]decan-3-ylamino)-2-hydroxypropoxy)-N-methylbenzenesulfonamide] | 0.0635 |

The remaining molecules from weak to strong by IC50, led by results:

| IC50 [µM] | Compound |
| --- | --- |
| 0.0358 | CNS(=O)(=O)c1cccc(OC[C@@H](O)CN[C@H]2COC3(CCN(S(=O)(=O)c4cnc5cccnc5c4)CC3)C2)c1 [Compound 485, 3-((S)-3-((R)-8-(1,5-naphthyridin-3-ylsulfonyl)-1-oxa-8-azaspiro[4.5]decan-3-ylamino)-2-hydroxypropoxy)-N-methylbenzenesulfonamide] |
| 0.0275 | CNS(=O)(=O)c1cccc(OC[C@@H](O)CNC2COC3(CCN(S(=O)(=O)c4ccc(OC)c(-c5ccc(CN)cc5)c4)CC3)C2)c1 (stereo partly drawn) [Compound 366, 3-((2S)-3-(8-(4′-(aminomethyl)-6-methoxybiphenyl-3-ylsulfonyl)-1-oxa-8-azaspiro[4.5]decan-3-ylamino)-2-hydroxypropoxy)-N-methylbenzenesulfonamide] |
| 0.0253 | CNS(=O)(=O)c1cccc(OC[C@@H](O)CNC2COC3(CCN(S(=O)(=O)c4cc(C)cc(Br)c4)CC3)C2)c1 (stereo partly drawn) [Compound 219, 3-((2S)-3-(8-(3-bromo-5-methylphenylsulfonyl)-1-oxa-8-azaspiro[4.5]decan-3-ylamino)-2-hydroxypropoxy)-N-methylbenzenesulfonamide] |
| 0.0243 | CNS(=O)(=O)c1cccc(OC[C@@H](O)CN[C@@H]2COC3(CCN(S(=O)(=O)c4ccc(OC)c(-c5ccc(C6(N)CC6)cc5)c4)CC3)C2)c1 [Compound 463, 3-((S)-3-((S)-8-(4′-(1-aminocyclopropyl)-6-methoxybiphenyl-3-ylsulfonyl)-1-oxa-8-azaspiro[4.5]decan-3-ylamino)-2-hydroxypropoxy)-N-methylbenzenesulfonamide] |
| 0.0236 | Cc1cccc2c(=O)c(S(=O)(=O)N3CCC4(CC3)C[C@@H](NC[C@H](O)COc3cccc(S(N)(=O)=O)c3)CO4)c[nH]c12 [Compound 553, 3-((S)-2-hydroxy-3-((R)-8-(8-methyl-4-oxo-1,4-dihydroquinolin-3-ylsulfonyl)-1-oxa-8-azaspiro[4.5]decan-3-ylamino)propoxy)benzenesulfonamide] |
| 0.0196 | CNS(=O)(=O)c1cccc(OC[C@@H](O)CNC2COC3(CCN(S(=O)(=O)c4ccc5occc5c4)CC3)C2)c1 (stereo partly drawn) [Compound 331, 3-((2S)-3-(8-(benzofuran-5-ylsulfonyl)-1-oxa-8-azaspiro[4.5]decan-3-ylamino)-2-hydroxypropoxy)-N-methylbenzenesulfonamide] |
| 0.0149 | CNS(=O)(=O)c1cccc(OC[C@@H](O)CNC2COC3(CCN(S(=O)(=O)c4cc(S(C)(=O)=O)ccc4Cl)CC3)C2)c1 (stereo partly drawn) [Compound 203, 3-((2S)-3-(8-(2-chloro-5-(methylsulfonyl)phenylsulfonyl)-1-oxa-8-azaspiro[4.5]decan-3-ylamino)-2-hydroxypropoxy)-N-methylbenzenesulfonamide] |
| 0.013 | CNS(=O)(=O)c1cccc(OC[C@@H](O)CNC2COC3(CCN(S(=O)(=O)c4ccc5c(c4)NC(=O)CO5)CC3)C2)c1 (stereo partly drawn) [Compound 126, 3-((2S)-2-hydroxy-3-(8-(3-oxo-3,4-dihydro-2H-benzo[b][1,4]oxazin-6-ylsulfonyl)-1-oxa-8-azaspiro[4.5]decan-3-ylamino)propoxy)-N-methylbenzenesulfonamide] |
| 0.00441 | CNS(=O)(=O)c1cccc(OC[C@@H](O)CN[C@H]2COC3(CCN(S(=O)(=O)c4ccc5ccccc5c4)CC3)C2)c1 [Compound 30, 3—((S)-2-hydroxy-3-((R)-8-(naphthalen-2-ylsulfonyl)-1-oxa-8-azaspiro[4.5]decan-3-ylamino)propoxy)-N-methylbenzenesulfonamide] |

— patent US11987588B2, “Modulators of the beta-3 adrenergic receptor useful for the treatment or prevention of heart failure and disorders related thereto” (Arena Pharmaceuticals, Inc., priority 2017, dated 2024)
